In ChEMBL document CHEMBL1201862, “PubChem BioAssay data set” (2004):
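These data come from cells grown in 96-well plates and exposed to compound for 48 hours at five concentrations. GI50 marks 50% less growth.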 Calls of active or inactive are those of the source. Cut-off read from the data, not from the text of the source: active = GI50 up to about 1.1 µM and inactive = higher.

Assays:
Assay in all cases: NCI anticancer screen, dose series, 48 h
IGROV-1 = test system: IGROV-1
UACC-62 = test system: UACC-62
HOP-62 = test system: HOP-62
A498 = test system: A498
SK-MEL-2 = test system: SK-MEL-2
MOLT-4 = test system: MOLT-4
DLD-1 = test system: DLD-1
HCC 2998 = test system: HCC 2998
SF-539 = test system: SF-539
RPMI-8226 = test system: RPMI-8226
UACC-257 = test system: UACC-257
HCT-116 = test system: HCT-116
LOX IMVI = test system: LOX IMVI
SF-268 = test system: SF-268
ACHN = test system: ACHN
SR = test system: SR
KM12 = test system: KM12
OVCAR-5 = test system: OVCAR-5
MDA-MB-435 = test system: MDA-MB-435
MDA-N = test system: MDA-N

Measured: GI50

COC(=O)CC1NC(=O)C1C(C)(OC)OC (configuration not stated)
inactive: IGROV-1 > 100 µM | UACC-62 > 100 µM | HOP-62 > 100 µM | A498 > 100 µM | SK-MEL-2 > 100 µM | MOLT-4 > 100 µM | DLD-1 > 100 µM | HCC 2998 > 100 µM | SF-539 > 100 µM | RPMI-8226 > 100 µM | UACC-257 > 100 µM | HCT-116 > 100 µM | LOX IMVI > 100 µM | SF-268 > 100 µM | ACHN > 100 µM | SR > 100 µM

COC1OC2COC(c3ccccc3)OC2C(O)C1Br (configuration not stated)
inactive: IGROV-1 > 100 µM | UACC-62 > 100 µM | HOP-62 > 100 µM | A498 > 100 µM | MOLT-4 > 100 µM | DLD-1 > 100 µM | KM12 > 100 µM | HCC 2998 > 100 µM | SF-539 > 100 µM | RPMI-8226 > 100 µM | UACC-257 > 100 µM | HCT-116 > 100 µM | LOX IMVI > 100 µM | SF-268 > 100 µM | OVCAR-5 > 100 µM | ACHN > 100 µM | SR > 100 µM

NCCCNC(=O)c1csc(NC(=O)c2csc(NC(=O)CCCN)n2)n1
inactive: IGROV-1 > 100 µM | UACC-62 > 100 µM | HOP-62 > 100 µM | A498 > 100 µM | SK-MEL-2 > 100 µM | MOLT-4 > 100 µM | DLD-1 > 100 µM | KM12 > 100 µM | HCC 2998 > 100 µM | SF-539 > 100 µM | RPMI-8226 > 100 µM | UACC-257 > 100 µM | HCT-116 > 100 µM | SF-268 > 100 µM | OVCAR-5 > 100 µM | ACHN > 100 µM | SR > 100 µM

COc1cc(/C=C2\[C@H]3c4c(c(OC)c(C)c(OC)c4OC)CC(C(=O)N2Cc2ccccc2)N3C)c(OC)c(C)c1OC
inactive: IGROV-1 21.8 µM | UACC-62 16.4 µM | HOP-62 19.5 µM | A498 27 µM | SK-MEL-2 > 10 µM | MOLT-4 19.7 µM | DLD-1 47.5 µM | KM12 36 µM | HCC 2998 21.7 µM | SF-539 19.3 µM | RPMI-8226 20.6 µM | UACC-257 21 µM | HCT-116 > 100 µM | LOX IMVI 18.4 µM | SF-268 27.2 µM | OVCAR-5 20.6 µM | ACHN 26.1 µM | SR 21.2 µM

COc1ccc(/C=N/NC(=O)C2=C(N)N(c3ccccc3)C(=C(C#N)C#N)S2)cc1
inactive: IGROV-1 > 100 µM | UACC-62 > 100 µM | MDA-MB-435 > 100 µM | HOP-62 53.8 µM | A498 22.6 µM | MOLT-4 > 100 µM | DLD-1 > 100 µM | KM12 > 100 µM | HCC 2998 > 100 µM | SF-539 48.1 µM | RPMI-8226 > 100 µM | UACC-257 > 100 µM | HCT-116 > 100 µM | SF-268 > 100 µM | MDA-N > 100 µM | OVCAR-5 > 100 µM | ACHN > 100 µM | SR > 100 µM

COc1cc2nc(Sc3c([N+](=O)[O-])ncn3C)[nH]c2cc1OC
inactive: IGROV-1 14.2 µM | UACC-62 24.3 µM | HOP-62 > 100 µM | A498 78 µM | MOLT-4 12.5 µM | DLD-1 14 µM | KM12 46.7 µM | HCC 2998 17.9 µM | SF-539 18.6 µM | RPMI-8226 22.3 µM | UACC-257 28.6 µM | HCT-116 27.4 µM | LOX IMVI 41.6 µM | SF-268 19.2 µM | OVCAR-5 98.6 µM | ACHN 54.3 µM | SR 13.3 µM

COC1CC2C3/C(=N/Nc4ccc([N+](=O)[O-])cc4[N+](=O)[O-])CCC2(C)C3C1 (configuration not stated)
inactive: IGROV-1 > 10 µM | UACC-62 > 10 µM | HOP-62 > 10 µM | A498 > 10 µM | SK-MEL-2 > 10 µM | MOLT-4 42.3 µM | DLD-1 > 10 µM | KM12 > 100 µM | HCC 2998 > 10 µM | SF-539 > 10 µM | RPMI-8226 78 µM | UACC-257 > 100 µM | HCT-116 > 100 µM | LOX IMVI > 10 µM | SF-268 > 100 µM | OVCAR-5 > 10 µM | ACHN > 10 µM | SR 37.1 µM

CCOC(=O)C[C@@H](C)[C@]1(C(=O)OC)CCCC1=O
inactive: IGROV-1 > 100 µM | UACC-62 > 100 µM | HOP-62 > 100 µM | A498 > 100 µM | SK-MEL-2 > 100 µM | MOLT-4 > 100 µM | DLD-1 > 47.2 µM | KM12 > 100 µM | HCC 2998 > 100 µM | SF-539 > 100 µM | RPMI-8226 > 49.3 µM | UACC-257 > 100 µM | HCT-116 > 41.1 µM | LOX IMVI > 47.1 µM | SF-268 > 90.8 µM | OVCAR-5 > 100 µM | ACHN > 100 µM | SR 27.9 µM

CCOC(OC1=CCCC1)C(C)[Se]c1ccccc1 (configuration not stated)
inactive: IGROV-1 41 µM | UACC-62 23.9 µM | HOP-62 > 100 µM | A498 18.2 µM | SK-MEL-2 48.4 µM | MOLT-4 22.3 µM | DLD-1 21.6 µM | KM12 43.8 µM | HCC 2998 32.4 µM | SF-539 23.8 µM | RPMI-8226 18.1 µM | UACC-257 36 µM | HCT-116 20.9 µM | LOX IMVI 14.7 µM | SF-268 17.6 µM | OVCAR-5 28.9 µM | ACHN 61.8 µM | SR 14.2 µM

CN1N=C2c3ccccc3CC[C@H]2C1c1cccc(O)c1 (some centres not stated)
inactive: IGROV-1 > 100 µM | UACC-62 > 100 µM | HOP-62 > 100 µM | A498 > 100 µM | SK-MEL-2 > 100 µM | MOLT-4 > 100 µM | DLD-1 > 100 µM | KM12 > 100 µM | HCC 2998 > 100 µM | SF-539 > 100 µM | RPMI-8226 > 100 µM | UACC-257 > 100 µM | HCT-116 3.05 µM | LOX IMVI > 100 µM | SF-268 > 100 µM | OVCAR-5 > 100 µM | ACHN > 100 µM | SR > 100 µM

CCCCCCCC[N+](C)(C)Cc1ccc(C[N+](C)(C)CCCCCCCC)cc1
inactive: IGROV-1 13.4 µM | UACC-62 77.8 µM | HOP-62 4.11 µM | A498 38.1 µM | SK-MEL-2 14.9 µM | MOLT-4 43.9 µM | DLD-1 35.4 µM | KM12 11.7 µM | HCC 2998 31.5 µM | RPMI-8226 90.2 µM | UACC-257 41.9 µM | HCT-116 > 100 µM | LOX IMVI 84.5 µM | SF-268 > 100 µM | OVCAR-5 > 100 µM | ACHN > 100 µM | SR > 100 µM
